In PubChem BioAssay (NCI) one finds TGI data, which are given here for 16 compounds.

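Step 1: Grow cells in 96-well plates. Step 2: Expose to compound for 48 hours at 5 concentrations. Step 3: Interpolate endpoints linearly; if unreached, use highest concentration. TGI is the concentration that stops growth completely.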 A value given as a limit tells only on which side of the number the result lay.

Among the test systems are RXF 393 renal; HCC-2998 colon; SNB-75 CNS; SR leukemia; SW-620 colon; UACC-62 melanoma; SK-MEL-28 melanoma; SF-295 CNS; SF-539 CNS; TK-10 renal; MDA-MB-435; SNB-19 CNS; NCI-H23 lung; MDA-N.
What all share (assay): NCI-60 cell line screen, 48 h

Take `CCOC(=O)C(C(=O)OCC)=C1NC2(c3ccccc3Nc3ccccc32)C(C#N)S1` (centres undefined): the TGI was 33 µM in the assay on RXF 393 renal; 17.1 µM in the assay on HCC-2998 colon; 53.2 µM in the assay with SNB-75 CNS; 6.81 µM with SR leukemia; 51.6 µM in the assay on SW-620 colon; 22 µM in the assay with UACC-62 melanoma. Moreover, the TGI turned out to be 50.7 µM with SK-MEL-28 melanoma; 40 µM in the assay on SF-295 CNS; 23 µM in the assay on SF-539 CNS; 38.6 µM in the assay on TK-10 renal; 20.6 µM with MDA-MB-435; 35.1 µM in the assay on SNB-19 CNS. The TGI in the assay with NCI-H23 lung came to 16 µM; in the assay on MDA-N, 36.3 µM.
With `CCOC(=O)/C=C/CCO[Si](C)(C)C(C)(C)C`, the TGI in the assay with RXF 393 renal, in the assay on HCC-2998 colon, in the assay on SNB-75 CNS, with SR leukemia, in the assay on SW-620 colon and in the assay on UACC-62 melanoma was more than 100 µM each time. In addition, the TGI in the assay with SK-MEL-28 melanoma, in the assay on SF-295 CNS, in the assay on SF-539 CNS, in the assay on TK-10 renal, in the assay with MDA-MB-435 and in the assay with SNB-19 CNS was more than 100 µM in each case. Besides, the TGI in the assay on NCI-H23 lung and with MDA-N was more than 100 µM throughout.
Regarding `O=C1CSC2(CC(/C=C/c3cccc([N+](=O)[O-])c3)=NN2c2cccc(S(=O)(=O)O)c2)N1c1nc2ccccc2s1` (centres undefined), the TGI in the assay with RXF 393 renal is more than 100 µM; in the assay with HCC-2998 colon, more than 100 µM; in the assay on SNB-75 CNS, 40.7 µM; in the assay with SR leukemia, 48.3 µM; in the assay on SW-620 colon, 76.4 µM; in the assay with UACC-62 melanoma it was 45.5 µM. Moreover, the TGI is more than 100 µM with SK-MEL-28 melanoma; more than 100 µM with SF-539 CNS; 39.8 µM with TK-10 renal; 34.9 µM in the assay with MDA-MB-435; 43.6 µM in the assay with SNB-19 CNS; 43.4 µM in the assay on NCI-H23 lung. This compound also showed a TGI in the assay on MDA-N of 59.1 µM.
For the compound `CCOC(=O)CNC(=O)C(CSC(=O)N(O)c1ccc(Cl)cc1)NC(=O)CCC(N)C(=O)OCC` (centres undefined), the TGI with RXF 393 renal, in the assay with HCC-2998 colon, in the assay with SR leukemia, in the assay with SW-620 colon, with UACC-62 melanoma and with SK-MEL-28 melanoma was more than 50 µM throughout. Further, the TGI with SF-295 CNS, in the assay with SF-539 CNS, in the assay on MDA-MB-435, in the assay on SNB-19 CNS, in the assay on NCI-H23 lung and in the assay with MDA-N was more than 50 µM throughout.
`COc1c(=O)cc2cc[nH]c3ccn(C)c1c23`: the TGI in the assay with RXF 393 renal, in the assay on HCC-2998 colon, in the assay with SNB-75 CNS, with SR leukemia, with SW-620 colon and in the assay with UACC-62 melanoma was more than 100 µM in each case. The TGI with SK-MEL-28 melanoma, in the assay with SF-295 CNS, in the assay on TK-10 renal, in the assay with MDA-MB-435, with SNB-19 CNS and with NCI-H23 lung was more than 100 µM in each case. Besides, in the assay with MDA-N, the TGI is more than 100 µM.
In the case of `NC(=O)C(=CNC(=S)Nc1ccccc1)C(N)=O`, the TGI in the assay with RXF 393 renal, with HCC-2998 colon, in the assay on SNB-75 CNS, with SR leukemia, in the assay with SW-620 colon and in the assay on UACC-62 melanoma was more than 100 µM throughout. The TGI in the assay with SK-MEL-28 melanoma, in the assay on SF-295 CNS, in the assay on SF-539 CNS, with MDA-MB-435, in the assay with SNB-19 CNS and in the assay with NCI-H23 lung was more than 100 µM throughout. In the assay with MDA-N, this compound showed a TGI of more than 100 µM.
As to `CCOC(=O)NNC(=O)NCc1cccc(CNC(=O)NNC(=O)OCC)c1`, the TGI in the assay on RXF 393 renal, in the assay with HCC-2998 colon, in the assay with SNB-75 CNS, in the assay on SR leukemia, in the assay with SW-620 colon and in the assay with UACC-62 melanoma was more than 100 µM each time. Besides, the TGI in the assay with SK-MEL-28 melanoma, in the assay on SF-539 CNS, with TK-10 renal, in the assay on MDA-MB-435, in the assay with SNB-19 CNS and in the assay with NCI-H23 lung was more than 100 µM each time. The compound also showed a TGI in the assay with MDA-N of more than 100 µM.
On to `CCOC(=O)c1sc2nc(SC)nc3c2c1NCN3c1ccc2c(c1)OCO2`, for which the TGI in the assay with RXF 393 renal was 10.3 µM; with HCC-2998 colon, more than 100 µM; in the assay on SR leukemia it was more than 100 µM; in the assay on SW-620 colon it was 45.1 µM; in the assay on UACC-62 melanoma it was 31.8 µM; in the assay with SK-MEL-28 melanoma, more than 100 µM. Further, the TGI with SF-295 CNS is 53.3 µM; in the assay on SF-539 CNS it was 51.1 µM; in the assay with TK-10 renal, 43.7 µM; in the assay with MDA-MB-435, 52.7 µM; in the assay on SNB-19 CNS, 31.2 µM; in the assay on NCI-H23 lung, more than 100 µM. The same compound gave a TGI in the assay with MDA-N of more than 100 µM.
For the compound `CC(C)=CCN1CC(C)C(=O)Nc2ccccc21` (centres undefined), the TGI with RXF 393 renal, in the assay with HCC-2998 colon, in the assay on SR leukemia, in the assay with SW-620 colon, in the assay with SK-MEL-28 melanoma and with SF-295 CNS was more than 100 µM in each case. For the same compound, the TGI in the assay on SF-539 CNS, in the assay with TK-10 renal, in the assay with MDA-MB-435, in the assay with SNB-19 CNS, with NCI-H23 lung and in the assay on MDA-N was more than 100 µM each time.
Regarding `O=C(/C=C/c1ccccc1)Oc1ccc(C(=O)/C=C/c2ccc(Cl)cc2)cc1`, the TGI with RXF 393 renal, in the assay with HCC-2998 colon, in the assay on SNB-75 CNS, with SR leukemia, in the assay with SW-620 colon and with UACC-62 melanoma was more than 100 µM in each case. The TGI in the assay with SK-MEL-28 melanoma, in the assay on SF-295 CNS, in the assay with SF-539 CNS, in the assay with TK-10 renal, in the assay on MDA-MB-435 and in the assay on SNB-19 CNS was more than 100 µM throughout. This compound also yielded a TGI in the assay on MDA-N of more than 100 µM.
For the compound `CC1(C)OC(=S)N(c2ccccc2)C12C=Cc1ccccc1O2` (centres undefined), the TGI with RXF 393 renal is more than 100 µM; in the assay on HCC-2998 colon, more than 100 µM; in the assay on SNB-75 CNS, more than 100 µM; in the assay on SR leukemia, 37.2 µM; with SW-620 colon it was more than 100 µM; in the assay with UACC-62 melanoma, more than 100 µM. Besides, the TGI in the assay with SK-MEL-28 melanoma, with SF-295 CNS, in the assay on TK-10 renal, in the assay with MDA-MB-435, in the assay with SNB-19 CNS and in the assay with NCI-H23 lung was more than 100 µM each time. For the same compound, in the assay with MDA-N, the TGI is more than 100 µM.
Regarding `CCCCc1ccc(-n2sc3ncc(C)cc3c2=O)cc1`, the TGI with RXF 393 renal is 73.8 µM; with HCC-2998 colon, more than 100 µM; with SNB-75 CNS, more than 100 µM; with SR leukemia it was more than 100 µM; in the assay with SW-620 colon, 78 µM; with UACC-62 melanoma, more than 100 µM. In addition, the TGI in the assay on SK-MEL-28 melanoma, in the assay with SF-295 CNS, in the assay with TK-10 renal, in the assay on MDA-MB-435, in the assay on SNB-19 CNS and with NCI-H23 lung was more than 100 µM in each case. Further, the TGI in the assay with MDA-N was more than 100 µM.
For the compound `CC1=NN(c2nc(N)nc(/C(C#N)=C\c3csc([N+](=O)[O-])c3)n2)C(C)(C)C1`, the TGI in the assay with RXF 393 renal was 44.7 µM; with HCC-2998 colon, more than 100 µM; with SR leukemia, more than 100 µM; in the assay with SW-620 colon it was more than 100 µM; in the assay on SK-MEL-28 melanoma it was more than 100 µM; in the assay with SF-295 CNS, more than 100 µM. In addition, the TGI with SF-539 CNS was more than 100 µM; with TK-10 renal, 95.5 µM; in the assay on MDA-MB-435 it was more than 100 µM; with NCI-H23 lung, 97.5 µM; in the assay with MDA-N, 98.9 µM.
With `COc1ccc(N2C(=O)/C(=C\c3cc(OC)c(OC)c(OC)c3)SC2c2ccccc2)cc1` (centres undefined), the TGI in the assay on RXF 393 renal, with HCC-2998 colon, in the assay on SR leukemia, in the assay with SW-620 colon, in the assay with UACC-62 melanoma and with SK-MEL-28 melanoma was more than 100 µM in each case. Besides, the TGI in the assay on SF-295 CNS, in the assay with SF-539 CNS, in the assay on TK-10 renal, in the assay with MDA-MB-435, with SNB-19 CNS and with NCI-H23 lung was more than 100 µM in each case. The TGI with MDA-N was more than 100 µM.
Turning to `CC1(C)OCC([C@H]2O[C@@H](CC(=S)NCCCCCCCCCCCCNC(=S)C[C@H]3O[C@@H](C4COC(C)(C)O4)[C@H]4OC(C)(C)O[C@H]43)[C@H]3OC(C)(C)O[C@H]32)O1` (some centres undefined), the TGI with RXF 393 renal, in the assay on HCC-2998 colon, with SNB-75 CNS, with SR leukemia, in the assay with SW-620 colon and with SK-MEL-28 melanoma was more than 100 µM each time. In addition, the TGI with SF-295 CNS, in the assay on SF-539 CNS, with TK-10 renal, in the assay on MDA-MB-435, with NCI-H23 lung and in the assay on MDA-N was more than 100 µM each time.
For the compound `NC1CC(=O)c2c1sc(Cl)c2Cl` (centres undefined), the TGI in the assay with RXF 393 renal, with HCC-2998 colon, in the assay on SNB-75 CNS, with SR leukemia, in the assay on SW-620 colon and in the assay on UACC-62 melanoma was more than 100 µM each time. Moreover, the TGI with SK-MEL-28 melanoma, in the assay with SF-539 CNS, with TK-10 renal, in the assay on MDA-MB-435, in the assay on SNB-19 CNS and in the assay on MDA-N was more than 100 µM in each case.
